The test system of test [1] is C72 murine anti-DNA antibody. Kind of test: Anti-peptide direct binding ELISA with C72. To be noted: for C72 Binding: direct binding ELISA, footnote: O.D. after one (1) hour. Here is the method: (§1) Wells were coated with 10 μg/ml of the peptides, blocked with 1% BSA (bovine serum albumin) in PBS (pH 7.4), reacted with appropriately diluted plasma or monoclonal antibodies, incubated with anti-human or anti-mouse immunoglobulin enzyme conjugated to alkaline phosphatase and detected by addition of substrate (Sigma 100 Phosphatase Substrate Tablets) and color development using an Organon Teknika Microwell System spectrometer at wavelength of 405 nm.
(§2) The interaction of the C72 murine anti-DNA antibody with laminin peptides was analyzed by ELISA as described above. The C72 conditioned medium was diluted in PBS in various dilutions.
(§3) The peptides of the present invention were tested for their ability to bind directly with C72 murine anti-DNA antibodies and B3 human anti-DNA antibodies according to the method described hereinabove.

Test [2] concerns B3 human anti-DNA antibodies. As to the kind of experiment: Anti-peptide direct binding ELISA with B3. As to conditions: for B3 Binding: direct binding ELISA, footnote: O.D. after two (2) hours. On the procedure: as §1
(§4) The human monoclonal anti-DNA antibodies DIL 6 and B3 were derived from lupus patients by the hybridoma technique. […] In FIGS. 3 and 4, the peptides are referred to as denoted above or as follows; AS30 is R27, AS19 is R35, AS35 is R26, AS17 is R28 and AS6 is R18.
as §3
(An ELISA detects its analyte on a solid surface through an enzyme-linked reagent.)

In test [3] the test system is human monoclonal anti-DNA antibody DIL 6. Kind of test: Anti-peptide direct binding ELISA with DIL6. On the procedure:
as §1, §4

The test system of test [4] is anti-HEL Hy5 control murine antibody. As to the kind of experiment: Direct binding ELISA with control murine antibody. To be noted: data not shown. On the procedure: as §1, §2
In test [5] the test system is C72 murine anti-DNA antibody. Kind of test: Competitive inhibition of the binding of C72 to 5200. As to conditions: after incubation of C72 with the inhibiting agent. On the procedure:
The binding of C72 to 5200 was tested before and after incubation with 5200, R38, R18, Heparin, DNA and DNase. […] The percent inhibition is the percent reduction of the O.D. after incubation with the inhibiting agent.

Another test addresses C72 anti-DNA antibody. As to the kind of experiment: Competitive inhibition of C72 binding to R38 (5100). Further details: species or system murine. To be noted: concentration of competitive inhibitor giving 50% inhibition, ELISA. From the text:
A competitive inhibition study compared how each of the peptides competes with R38 (5100) for binding to the C72 anti-DNA antibody. Conducted according to the methods described hereinabove, the results of the study are disclosed in Table 4 below and are further elucidated by reference to FIG. 10.

Test [6] has as its system MRL/1pr/1pr urine antibodies. Kind of test: Binding of murine urinary immunoglobulins, MRL/1pr/1pr urine. Set-up: species or system mice. Here is the method: as §1
(§5) Thus, pooled urine from at least 5 mice (either MRL/1pr/1pr or control mice, e.g. BALB/c) was added to wells coated with R38′ (5200), R18 or DNA as described above and bound 5200 assayed by ELISA.
(§6) Each group is comprised of pooled urine.

Test [7] concerns BALB/c urinary immunoglobulins. As to the kind of experiment: Binding of murine urinary immunoglobulins, BALB/c control urine. As to conditions: pooled urine of BALB/c control mice. Here is the method: as §1, §5, §6
The next test has as its system MRL/1pr/1pr mice. Kind of test: Clinical course of murine SLE (survival, renal histology). Type of test: in vivo. To be noted: for renal histology by light microscopy: two mice sacrificed after 5 months, controls severe diffuse proliferative glomerulonephritis. On the procedure: To test whether R38 peptides can affect the course of SLE we have tested their effect on MRL/1pr/1pr mice disease. 60 μg of 5200 (R38′ alone or in peptide combinations, 30 μg of each) in 0.1 ml PBS, was injected i.p. to 6 week old female MRL/1pr/1pr mice once a week for 16 weeks and the mice were evaluated for survival (FIG. 8), and for renal histology.
50 μg of 5100 (R38) or 5300 (human R38) in 0.1 ml PBS, was injected i.p. to 6 week old MRL/1pr/1pr mice three times a week and the mice were evaluated for survival (FIG. 9), and for renal histology. Control mice received 0.1 ml phosphate buffer solution. Each test and control group contained 12-15 mice.
The survival of MRL/1pr/1pr mice treated with 5100, 5200 or 5300 was compared to that of PBS treated mice. […] In FIGS. 8 and 9 the time in days shown on the x axis relates to the age of the mice. Two mice in each group were sacrificed after 5 months and their kidneys evaluated by light microscopy.

Test [8] relates to urine antibodies of lupus patients. As to the kind of experiment: Urine anti-peptide antibody ELISA in patients. The format is binding, human.
The target in test [9] is 5101 peptide (Res. 1-16 of 5100) (mouse). As to the kind of experiment: direct binding ELISA, peptide-coated wells, read after two hours.
Test [10] addresses 5102 peptide (Res. 6-17 of 5100) (mouse). The description is as above.
Test [11] addresses 5200 peptide (R38′), mouse R38 analog. Described as above.
Test [12] concerns the target 5300 peptide, human R38 (human). The test is described as above.
For test [13], the target named is R38 peptide (5100), mouse R38 (mouse). The test is described as above.
In test [14] the test system is urine antibodies of lupus patients. Kind of test: Urine anti-peptide antibody ELISA in patients. The format is binding, human. To be noted: Example 5. On the procedure: as §1
Activity of the disease was evaluated also by accepted clinical and serological parameters (Lockshin M. D. et al. Am. J. Med (1984) 77 893-898) and their correlation with anti-R38 levels was compared. 103 urine samples of 37 SLE patients were tested for anti-R38 activity by ELISA as described above. 23 of the samples were from patients without renal disease and 80 samples from patients with renal disease. A further 12 samples from patients with renal disease not related to SLE were also included.

A further test has as its system C72 antibody. As to the kind of experiment: Affinity absorption on R38 column, C72 sample. The format is binding, mouse. On the procedure: (§7) The R38 peptide was dissolved in the coupling buffer (0.2M NaHCO3, 0.5M NaCl, pH 8.3) in a concentration of 1 mg/ml in 5 ml coupling buffer. A 5 ml N-hydroxysuccinimide (NHS)-activated Sepharose™ High Performance Column (Pharmacia 17-0717-01) is used. The isopropanol in the column was washed out from the column with 30 ml of cold (4° C.) 1 mM HCl and 5 ml of the peptide solution was then injected onto the column with a syringe (2.5 ml/minute). The column was sealed and stood for 30 minutes at room temperature. The column was then washed with 30 ml Buffer A (0.5 M ethanolamine, 0.5 M NaCl, pH 8.3) and 30 ml Buffer B (0.5 M acetate, 0.5 M NaCl, pH 4) consecutively three times, and then with neutral pH buffer (0.05 M Na2HPO4 and 0.1% NaN3).
The column was washed with 15 ml PBS (phosphate buffered saline), followed by 15 ml elution buffer (0.1 M glycine HCl) and then 50 ml PBS. The C72 antibody or the patients' plasma samples were filtered through a 0.45 microm filter. The samples were applied onto the column by a fitted syringe at a rate of 2.5 ml/min. The column was then washed with 5 ml PBS and the flow-through was applied to the column again. […]
(§8) In the instant example, the mouse C72 and the SLE patients' plasma were applied to the R38 column. Their anti-R38 binding was evaluated by ELISA in the original samples and in the flow-through of the column.

The subject of test [15] is anti-R38 antibodies in human plasma. As to the kind of experiment: Affinity absorption on R38 column, human plasma samples. The format is binding. As to conditions: for Binding to R38 (O.D.), Original sample: before column; for Binding to R38 (O.D.), After immunoabsorption: flow-through of R38 column. Here is the method: as §7
The column was washed with 15 ml PBS (phosphate buffered saline), followed by 15 ml elution buffer (0.1 M glycine HCl) and then 50 ml PBS. The C72 antibody or the patients' plasma samples were filtered through a 0.45 microm filter. The samples were applied onto the column by a fitted syringe at a rate of 2.5 ml/min. The column was then washed with 5 ml PBS and the flow-through was applied to the column again. The binding of the samples (original and flow-through) to R38 was tested by the anti-R38 ELISA test.
as §8

No end group written: not given here.

5200 peptide (R38′), mouse R38 analog, sequence (peptide, as listed by the source): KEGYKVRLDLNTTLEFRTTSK
5300 peptide, human R38 (human), sequence (peptide, as listed by the source): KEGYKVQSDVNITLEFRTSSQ

On to `CC(C)C[C@H](NC(=O)[C@H](CC(=O)O)NC(=O)[C@H](CC(C)C)NC(=O)[C@H](CCCNC(=N)N)NC(=O)[C@@H](NC(=O)[C@H](CCCCN)NC(=O)[C@H](Cc1ccc(O)cc1)NC(=O)CNC(=O)[C@H](CCC(=O)O)NC(=O)[C@@H](N)CCCCN)C(C)C)C(=O)N[C@@H](CC(N)=O)C(=O)N[C@H](C(=O)N[C@H](C(=O)N[C@@H](CC(C)C)C(=O)N[C@@H](CCC(=O)O)C(=O)N[C@@H](Cc1ccccc1)C(=O)N[C@@H](CCCNC(=N)N)C(=O)N[C@H](C(=O)N[C@H](C(=O)N[C@@H](CO)C(=O)N[C@@H](CCCCN)C(=O)O)[C@@H](C)O)[C@@H](C)O)[C@@H](C)O)[C@@H](C)O` (stereo in doubt) [Peptide 5200], for which the “binding of C72 murine anti-DNA antibody to laminin peptides (FIG. 1)” value in [1] (ELISA, C72 conditioned medium in various dilutions) is “binding”. In test [1], the “C72 Binding” value is 1.8 O.D. The “binding of B3 to laminin peptides (FIGS. 3 and 4)” value in [2] was “bind”. For the same compound, the “B3 Binding” value in [2] worked out at 0.25 O.D. Besides, the “binding of DIL 6 to laminin peptides (FIGS. 3 and 4)” value in test [3] was “bind”. In addition, the “binding of control antibody anti-HEL Hy5” value in [4] was “did not bind”. For the same compound, the “inhibition of the binding of C72 to 5200 (FIG. 2)” value in test [5] is “inhibition”. Besides, the “50% Inhibition of C72 binding to mouse R38 (5100)” value at C72 anti-DNA antibody worked out at 10 µg/mL. Moreover, in test [6] (direct binding ELISA), the “interaction of MRL/1pr/1pr urine antibodies with peptide” value was “specific binding”. The “Binding of murine urinary immunoglobulins to antigen” value was 0.26(*) O.D. at 405 nm in test [6] (pooled urine of MRL/1pr/1pr mice) and “U.D” in [7]. The “survival versus PBS control mice (FIG. 8)” value in the test with MRL/1pr/1pr mice (60 μg i.p. once a week for 16 weeks, 6 week old female mice) is on record as “significantly higher”. Besides, in the test on MRL/1pr/1pr mice (60 μg i.p. once a week), the “renal histology by light microscopy” value is “mild proliferative changes with no crescents and no sclerosis”. The “Urine anti-5200 O.D. (Mean + S.E.)” value was 0.05 ± 0.005 O.D in [8] (Example 6, renal disease absent, 46 samples); 0.335 ± 0.035 O.D in test [8] (Example 6, renal disease present, 132 samples, p < 0.001); 0.052 ± 0.03 O.D in [8] (Example 8, renal disease absent, 6 samples); 0.431 ± 0.09 O.D in test [8] (Example 8, renal disease present, 46 samples).

B3 human monoclonal anti-DNA antibody: the O.D. in a direct binding ELISA in test [9] was 0.1 O.D; in [10] it was 0.02 O.D; in test [11] it was 0.25 O.D; in [12] it was 0.03 O.D; in test [13], 0.9 O.D.

In the case of KEGYKVRLDLNITLEFRTTSK [Peptide 5100], the “C72 Binding” value in test [1] is 2.57 O.D. In addition, the “B3 Binding” value in test [2] is on record as 0.9 O.D. Moreover, in test [5], the “inhibition of the binding of C72 to 5200 (FIG. 2)” value is given as “inhibition”. Also, the “50% Inhibition of C72 binding to mouse R38 (5100)” value on C72 anti-DNA antibody stood at 10 µg/mL. The “Urine anti-R38 O.D. (Mean + S.E.)” value in test [14] (SLE absent, renal disease present, 12 samples) was 0.07 ± 0.01 O.D; in [14] (SLE present, renal disease absent, 23 samples) it was 0.035 ± 0.003 O.D; in test [14] (SLE present, renal disease present, 80 samples, p < 0.001), 0.229 ± 0.03 O.D. For the same compound, the “survival versus PBS control mice (FIG. 9)” value in the test with MRL/1pr/1pr mice (50 μg i.p. three times a week, 6 week old mice) was “significantly higher”. The “renal histology by light microscopy” value with MRL/1pr/1pr mice (50 μg i.p. three times a week) was “mild proliferative changes with no crescents and no sclerosis”. Also, the “Binding to R38 (O.D.), Original sample” value with C72 antibody (sample C72, before column) was 1.96 O.D; in test [15] (Healthy donor's plasma), 0.26 O.D; in test [15] (SLE patient 1 plasma) it was 1.5 O.D; in test [15] (SLE patient 2 plasma), 2.3 O.D. In addition, the “Binding to R38 (O.D.), After immunoabsorption” value in the test with C72 antibody (sample C72, flow-through of R38 column) is on record as 0.02 O.D; in test [15] (Healthy donor's plasma) it was 0.06 O.D; in test [15] (SLE patient 1 plasma), 0.6 O.D; in test [15] (SLE patient 2 plasma), 1.6 O.D. Also, the “Urine anti-5100 O.D. (Mean + S.E.)” value in test [8] (Example 7, renal disease absent, 6 samples) was 0.058 ± 0.006 O.D; in [8] (Example 7, renal disease present, 39 samples, p < 0.03) it was 0.376 ± 0.05 O.D.
